Laboratory results published in US20250127896A1, “CHIMERIC TIM4 RECEPTORS AND USES THEREOF” (CERO THERAPEUTICS HOLDINGS, INC., priority 2021, published 2025).
Entries after “also recorded” stand apart in the source; their conditions may differ.

What was measured:
Format in all cases: cell-based
[1] = tested on: phosphatidylserine (PS); experiment: Single induction plate assay: IFN-γ by CER T cells on plate-bound phosphatidylserine (ELISA); conditions: for IFN-γ production in response to phosphatidylserine: plate-bound PS; for IFNγ production by donor in response to increasing doses of plate-bound phosphatidylserine: three donors (31, 32, 38)
Description: (§1) FIGS. 19A-19C: CER T cells are activated and produce IFN-γ in response to phosphatidylserine engagement in a cell-free in vitro system. FIG. 19A: IFN-γ production in response phosphatidylserine (PS). IFN-γ production was induced in CER-1236 and CER-1234 T cells stimulated with PS (FIG. 19A), but not with phosphatidylethanolamine (PE) (FIG. 19B). […] FIG. 19C: CER1236 T cells are capable of recursive stimulation in vitro. Recursive IFN-γ induction with 3 serial stimulations at the indicated time points following a 24-hour rest after the first stimulation.
as §1, with “FIG. 33A-33C:” for “FIGS. 19A-19C:”, “33A:” for “19A:”, “33A),” for “19A),”, “33B).” for “19B).”, “33C:” for “19C:”
FIG. 44 are graphs showing IFNγ production in CER1234 T cells (left) or CER1236 T cells (right) from three donors in response to titrating doses of plate-bound phosphatidylserine.
FIG. 45 are graphs showing IFNγ production in CER1234 T cells or CER1236 T cells by donor in response to increasing doses of plate-bound phosphatidylserine.
FIG. 46 are graphs showing IFNγ production in CER1234 T cells or CER1236 T cells by donor in response to increasing doses of plate-bound phosphatidylserine at day 14 post-thaw.
FIG. 47 are graphs showing T cell expansion (left), IFNγ production (center), and cell viability (right) in CER1236 T cells in response to increasing doses of plate-bound phosphatidylserine.
FIG. 48 are graphs showing T cell expansion (left), IFNγ production (center), and cell viability (right) in CER1234 T cells in response to increasing doses of plate-bound phosphatidylserine.
(§2) CER T-cell activation was assessed by measuring induction of IFN-gamma by plate- and cell-based assays. Single induction plate assay: varying concentrations of phosphatidylserine (PS) or phosphatidylethanolamine (PE), a control membrane phospholipid not recognized by wild type TIM-4 (wtTIM-4), were coated onto high-binding tissue culture plates. CER T cells were added and IFN-γ levels were measured 24 hours after ligand exposure by ELISA. EC50 concentrations were determined by nonlinear regression (agonist vs. response-variable slope (4 parameters)). Induction by recursive stimulation plate assay: CER T cells were added to phosphatidylserine coated plates (2.5-20 μg/mL PS coating). Five days later, CER T cells were transferred to uncoated plates with fresh T cell optimizer media for 24 hours. Then, CER T cells were transferred again to a fresh PS coated plate. Supernatant was collected to assess IFN-γ induction by ELISA at various timepoints during re-stimulation (24, 72, and 120 hours). Cell-based assay: cytokine induction was assessed by multiparametric ELISA using conditioned supernatants harvested after 120 hours from the cytotoxicity assay described below.
T cells obtained from three different donors were transduced with CER1234 or CER1236 and incubated on titrating doses of plate-bound phosphatidylserine.
24 hour IFNγ stimulation by plate-bound phosphatidylserine aligns with day 5 post-activation expansion for CER1236 T cells. […] 24 hour IFNγ stimulation by plate-bound phosphatidylserine aligns with day 5 post-activation expansion for CER1234 T cells.

[2] = tested on: NSCLC H1975 cells; experiment: H1975 NSCLC cell growth with CER1236 T cells and osimertinib (Incucyte); conditions: 100 nM osimertinib 24 h, then 4.88 nM, E:T 0.25:1, 120 h
Experimental: FIG. 39: Graph showing NSCLC H1975 cell growth for cells pretreated with 100 nM osimertinib or vehicle and then co-cultured with CER1236 T cells.
CER1236 T cells were tested in combination with EGFR tyrosine kinase inhibitor osimertinib on a non-small cell lung cancer (NSCLC) cell line. Ten-thousand NSCLC H1975 cells were cultured for 24 h with 100 nM osimertinib or vehicle (DMSO) and then co-cultured with 2500 CER1236 T cells at an Effector:Target cell ratio of 0.25:1 in the presence or absence of 4.88 nM osimertinib or vehicle. Tumor cell growth was monitored with indicated for 120 h in an Incucyte assay.

[3] = tested on: NSCLC H1975 cells; experiment: T cell expansion in H1975 co-culture with osimertinib (quantitative flow cytometry)
Experimental: FIG. 41: Bar graphs showing fold expansion of total CD3+ T cells (untransduced+vehicle, untransduced+osimertinib, CER1236+vehicle, CER1236+osimertinib) determined by quantitative flow cytometry using quantitation beads over a time course (48 hrs, 96 hrs, 120 hrs, and 144 hrs).
FIG. 42: Flow cytometry plots measuring CD3+ cells (y-axis) and H1975 cell (x-axis) in co-culture experiments with H1975 cells pretreated with vehicle or osimertinib ([…], 19.53 nM) and untransduced T cells (top row) or CER1236 T cells (bottom row).
Proliferation of CER1236 T cells co-cultured with H1975 NSCLC cells pre-treated with osimertinib or vehicle was also measured. […] Total CD3+ T cells fold expansion was determined by quantitative flow cytometry using quantitation beads over a time course (48 hrs, 96 hrs, 120 hrs, and 144 hrs). Experiment was performed twice, once with 5,000 target H1975 cells and once with 10,000 target H1975 cells.

[4] = tested on: REC-1 cells; experiment: Cytokine induction in CER T / REC-1 co-cultures (multiparametric ELISA); conditions: for cytokine response (GrB, IFN-γ, TNF-α) with BTK inhibitor: ibrutinib-induced phosphatidylserine exposure
Experimental: FIGS. 16A-16H: Induction of Cytokines in Ibrutinib-Treated Co-Cultures of CER1183 and CER1234 T cells and REC-1 Target Cells. Samples depicted in bar graphs from left to right, untransduced, CER-1183, and CER-1234. FIG. 16A: TNFα induction. FIG. 16B: IL-2 induction. FIG. 16C: IFNγ. FIG. 16D: IL-5 induction. FIG. 16E: IL-6 induction. FIG. 16F: IL-10 induction. FIG. 16G: IL-4 induction. FIG. 16H: granzyme B induction.
Cytokine induction was assessed by multiparametric ELISA using conditioned supernatants harvested after 96 hours in the cytotoxicity assay described above.
as §2

[5] = Donor 38, 24 hours after ligand exposure
[6] = Donor 41, 24 hours after ligand exposure

| Substance | PS EC50 (IFN-γ production) [1, 5] [µg/mL] | PS EC50 (IFN-γ production) [1, 6] [µg/mL] | IFNγ production by donor on plate-bound phosphatidylserine at day 14 post-thaw ([1]; day 14 post-thaw) | IFN-γ production in response to phosphatidylserine [1] | IFNγ production by donor in response to increasing doses of plate-bound phosphatidylserine [1] | H1975 tumor cell growth, combination with osimertinib [2] | CD3+ T cell proliferation and H1975 cell numbers, osimertinib-treated H1975 ([3]; 120 hours, 4:1 effector:target ratio, flow cytometry) | total CD3+ T cells fold expansion, combination with osimertinib ([3]; E:T 1:4, 48, 96, 120, 144 hrs) | IL-2, IL-4 and IL-6 ([4]; co-culture with REC-1 cells, 0.5 μM ibrutinib) | cytokine induction: TNF-α, IFN-γ, IL-10, IL-5, granzyme B ([4]; co-culture with REC-1 cells, 0.5 μM ibrutinib, 96 hours) | cytokine response (GrB, IFN-γ, TNF-α) with BTK inhibitor [4] | cytokine response (GrB, IFN-γ, TNF-α) with BTK inhibitor ([4]; listed as CER1234) |
| --- | --- | --- | --- | --- | --- | --- | --- | --- | --- | --- | --- | --- |
| CER-1236: chimeric Tim4 receptor: Tim4 binding domain-CD28tm-CD28-CD3z-TLR2 TIR, SEQ ID NO:19; tested as transduced T cells | 4.74 | 3.16 | produces more IFNγ across all donors compared to CER1234 T cells | specifically produce IFN-γ in a dose-dependent manner; also recorded: produced concentration-dependent IFN-γ responses | shows strong activation | synergizes to inhibit H1975 NSCLC cells in vitro | CD3+ T cell proliferation was highest and H1975 cell numbers lowest | osimertinib drives CER1236 T cell proliferation | – | – | – | – |
| CER-1234: chimeric Tim4 receptor: Tim4 binding domain-CD28tm-CD28-TLR2 TIR-CD3z, SEQ ID NO:18; tested as transduced T cells | 3.52 | 1.88 | – | specifically produce IFN-γ in a dose-dependent manner; also recorded: produced concentration-dependent IFN-γ responses | shows lower activation for donors 32 and 38 | – | – | – | nominally increased | induced | production of Th1 cytokines | enhances CER1234 T cell cytokine response |
